Consider two molecules from PMC6356765, “Nepafenac-Loaded Cyclodextrin/Polymer Nanoaggregates: A New Approach to Eye Drop Formulation” (Materials, 2019).

Details of data set [1]: method as in PMID 27513223, PMID 18500088, PMID 17189793, PMID 28493461. The conditions noted are these: powdered form; cited from earlier work.
Data set [2] can be described thus: Chemical stability of nepafenac in 1% w/v γCD solution after heating by sonication. Format: physicochemical. The conditions noted are these: for Mean (± SD) Nepafenac Concentration: aqueous 1% w/v γCD, n = 3. Here is the method: The chemical stability of nepafenac was determined in aqueous solution containing 1% w/v γCD following heating by sonication. The solution was shaken for 24 h until the drug was completely dissolved and then passed through a 0.45 µm membrane filter. The solution was then divided between four sealed vials. Vial 1 was used as a blank. Vials 2, 3 and 4 were heated in a sonicator at 60 °C for 20, 40 and 60 min, respectively. Drug concentrations were determined by HPLC.
The HPLC assay was performed using a reverse-phase ultra-high-performance liquid chromatography (UHPLC) Ultimate 3000 series system (Dionex Softron GmbH, Germering, Germany) consisting of a LPG-3400SD pump (Dionex, Germering, Germany) with a built-in degasser, WPS-3000 autosampler (Dionex, Germering, Germany), TCC-3100 column compartment (Dionex, Germering, Germany) and CoronaR ultra RS detector (Dionex, Germering, Germany). During the stationary phase, a Phenomenex Kinetex C18 column (150 × 4.6 mm, 5 µm) with matching HPLC Security Guard (Phenomenex, Cheshire, UK) was used. The mobile phase used a mixture of acetonitrile and water (50:50). The flow rate was 1 mL/min, the column oven temperature was ±25 °C and the detection wave length was set to 254 nm. The retention time for nepafenac under these conditions was 2.3 min.

Data set [3] can be described thus: Phase solubility studies of nepafenac with cyclodextrins. Format: physicochemical. The note with it: pure 2.5% HPβCD, aqueous (Figure 2). How it is done:
The solubility of nepafenac in combination with different cyclodextrin concentrations was determined following heating by sonication. Firstly, an excess amount of nepafenac (approximately 5 mg) was added to aqueous solutions containing known concentrations of CDs (ranging up to 15% (w/v) for αCD, γCD, HPαCD, HPβCD, HPγCD and 1.5% (w/v) for βCD) in pure water. The drug suspensions were saturated with nepafenac and heated in a sonicator in sealed vials at 60 °C for 60 min, before being allowed to cool to room temperature. Then, a small amount of solid nepafenac (approximately 2 mg) was added to each suspension to produce drug precipitation. Vials were resealed and placed in a shaker under constant agitation for 7 days. After reaching equilibrium, suspensions were filtered using 0.45 µm membrane filters, before being diluted in pure water and analysed by UHPLC. Determinations were made in triplicate. […]
The apparent stability constant (K1:1) according to the hypothesis of a 1:1 stoichiometric ratio of complexes was calculated using the following equation:(1) K1:1 = slope/S0(1−slope)
In addition, complexation efficiency (CE) was calculated. This factor can be calculated either from the slope of the phase solubility profile or from the ratio of the concentration of the drug/CD complex to free CD [52]:(2) CE=slope/(1−slope)=[Guess/CD complex]/[CD]

Data set [4] deals with human cornea epithelial cell line. On the set-up: method as in PMID 9706061. The conditions noted are these: cited from earlier work.

Turning to `NC(=O)Cc1cccc(C(=O)c2ccccc2)c1N` [Nepafenac, 2-amino-3-benzoylbenzeneacetamide], in data set [1], the “Biopharmaceutical Classification System class” value was “class IV”. For the same molecule, in data set [2] (CD aqueous solutions, sonicator heating), the “Degradation of nepafenac on heating by sonication” value is given as “no degradation”. The entries for the “Mean (± SD) Nepafenac Concentration” value in data set [2] (sonication 60 °C 20 min), in data set [2] (sonication 60 °C 40 min) and in data set [2] (sonication 60 °C 60 min) were 6.41 ± 0.08 µg/mL, 6.49 ± 0.07 µg/mL and 6.57 ± 0.08 µg/mL, respectively. The Solubility of nepafenac in data set [3] is 850 µg/mL.

Consider `OC[C@H]1O[C@@H]2O[C@H]3[C@H](O)[C@@H](O)[C@@H](O[C@H]4[C@H](O)[C@@H](O)[C@@H](O[C@H]5[C@H](O)[C@@H](O)[C@@H](O[C@H]6[C@H](O)[C@@H](O)[C@@H](O[C@H]7[C@H](O)[C@@H](O)[C@@H](O[C@H]8[C@H](O)[C@@H](O)[C@@H](O[C@H]9[C@H](O)[C@@H](O)[C@@H](O[C@H]1[C@H](O)[C@H]2O)O[C@@H]9CO)O[C@@H]8CO)O[C@@H]7CO)O[C@@H]6CO)O[C@@H]5CO)O[C@@H]4CO)O[C@@H]3CO` [γCD, γ-cyclodextrin], for which the “Cytotoxic profile (ranking among CDs)” value in data set [4] is “least cytotoxic profile”.
